Measured values published in patent US20220087987A1, “A METHOD FOR TREATING SWI/SNF COMPLEX-DEFICIENT CANCERS COMPRISING GLUTATHIONE (GSH) METABOLIC PATHWAY INHIBITOR” (National Cancer Center, priority 2018, published 2022).

Tests used:
[1] = tested on: diffuse-type gastric cancer PDCs; test: Cell viability of diffuse-type gastric cancer PDCs; assay type: cell-based, human; settings: treatment for 6 days
[2] = tested on: ARID1A-proficient and ARID1A-deficient cancer cell lines; test: Cell viability and colony formation in cancer cell line panel; assay type: cell-based, human
[3] = tested on: ARID1A-deficient TOV21G OCCC xenografts; test: Mouse xenograft model, TOV21G; assay type: in vivo, mice; settings: APR-246 50 mg/kg
Description: All mouse experiments were approved by the National Cancer Center (NCC) animal Ethical Committee. Cells were counted and re-suspended in a 1:1 mixture of 100 μl culture medium and 100 μl Matrigel (BD Biosciences) on ice. […] In the subcutaneous model, once the tumors were palpable (about 3-14 days after implantation), mice were randomly divided into two groups. […] In the doxycycline (Dox) treatment study, TOV21G-shNT cells and TOV21G-shGCLC cells were injected into the flanks of 6-week-old female BALB/c-nu/nu mice. […] In other experiments, TOV21G-shNT cells and TOV21G-shGCLC cells were treated with Dox (0.5 μg/ml) for 4 days and then injected into the flank of 6-week-old female BALB/c-nu/nu mice. […] Tumor growth was measured every several days using calipers. The volume of implanted tumors was calculated using the formula V=L×W2/2, where V is volume (mm^3), L is the largest diameter (mm), and W is the smallest diameter (mm). At the end of the experiment, mice were sacrificed in accordance with standard protocols.
GSH was detected using the GSH-Glo Assay (Promega). Tumor samples derived from xenografts were weighed and washed with PBS. The tumor samples were mixed with 50 μl of PBS and homogenized using a Mini Cordless Grinder (Funakoshi). PBS (950 μl) was added to homogenized tumor samples and centrifuged at 4° C. for 10 min at 15,000 rpm. Tumor extract and 2×GSH-Glo Reagent (25 μl of each) were mixed in white 96-well plates (Greiner) and incubated for 30 min at room temperature. Luciferin Detection Reagent (50 μl) was added and the samples were incubated for 15 min at room temperature. Luminescence was measured using an Envision Multi-label plate reader (PerkinElmer). GSH signal intensities per 1 mg of tumor sample were calculated.
Formalin-fixed, paraffin-embedded ovarian cancer clinical specimens and TOV21G xenografts were deparaffinized and representative whole 4-μm-thick sections were analyzed by IHC. […] The samples were removed from the freezer and equilibrated at −20° C. for approximately 15 minutes before sectioning. Tissue sections (6 μm thick) were placed on positively charged slides, dried, and fixed for 15 minutes at room temperature in 3% formaldehyde, followed by 5 minutes in methanol at −20° C. After fixation, representative sections were analyzed by IHC. […] All IHC staining was performed using a Dako autostainer Link48 (Dako).
First, membrane staining intensity (0, 1+, 2+, or 3+) was determined for each cell in a fixed field. The H-score was assigned using the following formula: [1×(% cells 1+)+2×(% cells 2+)+3×(% cells 3+)]. The final score, ranging from 0 to 300, gives more relative weight to higher-intensity membrane staining in a given tumor sample. The percentage of NOXA-, cleaved caspase-3-, cleaved PARP- and Ki67-positive cells (of the total number of cells) in each slide were counted.

[4] = tested on: SWI/SNF complexes (SMARCA2, SMARCA4, SMARCB1, PBRM1) deficient cancer cells; test: Cell viability of SWI/SNF complex-deficient cancer cell lines; assay type: cell-based, human; settings: treatment for 6 days
Description: (§1) Cell viability was examined by measuring the cellular ATP level using the CellTiter-Glo Luminescent Cell Viability Assay (Promega). To measure cell viability after siRNA-mediated knockdown, cell lines were transfected with siRNAs (25 nM) using Lipofectamine RNAiMAX. After 48 hrs, cells were trypsinized and repeatedly transfected with siRNAs (25 nM) using Lipofectamine RNAiMAX. Cells were trypsinized after a further 48 hrs, counted, and reseeded at the specified density in 96-well plates. To measure cell viability after drug treatment, cells were trypsinized, counted, reseeded at the specified density in 96-well plates, and exposed to the indicated concentrations of drugs. Cell viability was measured using the CellTiter-Glo Luminescent Cell Viability Assay. Luminescence was measured using an Envision Multi-label plate reader (PerkinElmer).

GSH = test: Detection of GSH in cells (GSH/GSSG-Glo, GSH-Glo); assay type: cell-based, human; settings: ARID1A-deficient versus ARID1A-proficient ovarian and other cancer cells
ovarian PDCs = test: Cell viability of ovarian patient-derived cancer cells; assay type: cell-based, human; settings: 33 μM APR-246 or 100 μM BSO for 6 days
Description: Tumor samples and ascites were obtained from four ovarian cancer patients who underwent surgery or cell-free and concentrated ascites reinfusion therapy at the National Cancer Center Hospital or Kaname-cho Hospital (Tokyo, Japan) and were cultured in vitro. This protocol was approved by the Institutional Review Board of the National Cancer Center (Tokyo, Japan), and informed consent was obtained from the patients. To establish CCCO219 and CCC1216 PDCs, patient ascites (24 ml) were diluted in two volumes of PBS containing 2 mM EDTA, layered over 15 ml Ficoll-Paque PLUS (GE Healthcare), and centrifuged at 2200 rpm for 30 min. The interphase mononuclear layer was transferred to a fresh conical tube and washed twice with PBS containing 2 mM EDTA. […]
as §1, with “To measure cell viability after siRNA-mediated knockdown, cell lines were transfected with siRNAs (25 nM) using Lipofectamine RNAiMAX. After 48 hrs, cells were trypsinized and repeatedly transfected with siRNAs (25 nM) using Lipofectamine RNAiMAX.” left out

ROS = test: Detection of ROS in cells (ROS-Glo); assay type: cell-based, human; settings: ARID1A-deficient versus ARID1A-proficient ovarian and other cancer cells
Description: (§2) GSH, ROS and apoptosis were detected using the GSH/GSSG-Glo Assay (Promega) and/or the GSH-Glo Assay (Promega), the ROS-Glo Assay (Promega), and the Caspase-Glo 3/7 Assay, respectively. To measure levels of GSH, ROS and apoptosis after drug treatment, cells were trypsinized, counted, reseeded at the specified density in 96-well plates and exposed to the indicated concentrations of drugs. After 16-48 hrs, luminescence was measured using an Envision Multi-label plate reader (PerkinElmer). To measure levels of GSH and ROS after siRNA-mediated knockdown, cell lines were transfected with siRNAs (25 nM) using Lipofectamine RNAiMAX. After 48 hrs, cells were trypsinized and transfected repeatedly with siRNAs (25 nM) using Lipofectamine RNAiMAX. Cells were trypsinized after a further 48 hrs, counted, and reseeded at the specified density in 96-well plates. After 72-120 hrs, luminescence was measured using an Envision Multi-label plate reader (PerkinElmer). Cell viability was also measured using the CellTiter-Glo Luminescent Cell Viability Assay (Promega). Caspase-3/7, GSH, and ROS levels were normalized against cell viability. The GSH/GSSG ratio was calculated as the GSH-GSSG signal divided by the GSSG/2 signal. Relative signal ratios in treated samples were normalized against untreated samples.

[5] = tested on: bile duct cancer cell lines; test: Cell viability of bile duct cancer cell lines; assay type: cell-based, human; settings: treatment for 6 days
Description: as §1

[6] = tested on: ARID1A-KO cells and ARID1A-deficient cancer cells; test: Apoptosis detection (cleaved caspase-3/7, Annexin V); assay type: cell-based, human
Description: The Annexin V-FITC/PI Apoptosis Detection Kit (Sigma-Aldrich) was used to detect apoptotic cells. Briefly, the cell pellet was suspended in 1× binding buffer and then incubated with Annexin V-FITC and PI in the dark for 10 min. Fluorescence was analyzed on a Guava flow cytometer (Millipore). Data were analyzed using GuavaSoft software (v. 2.7). Relative ratios of the Annexin V-positive fraction in treated samples were normalized against untreated samples.
as §2, with “To measure levels of GSH and ROS after siRNA-mediated knockdown, cell lines were transfected with siRNAs (25 nM) using Lipofectamine RNAiMAX. After 48 hrs, cells were trypsinized and transfected repeatedly with siRNAs (25 nM) using Lipofectamine RNAiMAX.” left out, “Caspase-3/7, GSH, and ROS levels were normalized against cell viability.” left out, “Relative signal ratios in treated samples were normalized against untreated samples.” left out

[7] = tested on: uterine cancer cell lines; test: Cell viability of uterine cancer cell lines; assay type: cell-based, human; settings: treatment for 6 days
Description: as §1

**Q.** `CCCCS(=N)(=O)CCC(N)C(=O)O` (stereo not shown) [BSO, buthionine sulfoximine] was tested. Which “sensitivity to BSO (relative AUC for cell viability)” value [1] did it give?
**A.** The value was “sensitized ARID1A-deficient PDCs more efficiently than ARID1A-proficient PDCs”.

**Q.** What about the “sensitivity of ARID1A-deficient TOV21G versus ARID1A-proficient RMG-I ovarian cancer cells” value ([2]; cell viability after 3 days) of the same compound?
**A.** Its value is “more sensitive than ARID1A-proficient RMG-I ovarian cancer cells”.

**Q.** And the “sensitivity of ARID1A-deficient versus ARID1A-proficient cancer cells” value ([2]; four ARID1A-proficient and six ARID1A-deficient cell lines, cell viability, colony formation)?
**A.** The value was “selectively sensitive to BSO”.

**Q.** What about the tumor weight ([3]; BSO 750 mg/kg) of the same compound?
**A.** Its tumor weight is “reduced tumor weight”.

**Q.** What about the “body weight of mice” value ([3]; BSO 750 mg/kg once a day) of the same compound?
**A.** The value was “without loss of body weight”.

**Q.** What about the “growth of xenografts (tumor volume)” value ([3]; intraperitoneally once daily 12-14 days, BSO 750 mg/kg) of the same compound?
**A.** The value was “markedly suppressed xenograft growth”.

**Q.** What about the “sensitivity to BSO (relative AUC for cell viability)” value [4] of the same compound?
**A.** The value was “sensitized these SWI/SNF complexes deficient cell lines more efficiently than these SWI/SNF complexes proficient cell lines”.

**Q.** What about the “GSH level in cancer cell lines” value (GSH) of the same compound?
**A.** Its value is “decreased the GSH level”.

**Q.** What about the “sensitivity of ARID1A-deficient versus ARID1A-positive PDCs” value (ovarian PDCs) of the same compound?
**A.** The value was “more sensitive”.

**Q.** And the “ROS level in cancer cell lines” value (ROS)?
**A.** The value was “increased ROS levels”.

**Q.** What about the “sensitivity to BSO of bile duct cancer cell lines” value [5] of the same compound?
**A.** Its value is “sensitized ARID1A-deficient cell lines more efficiently than ARID1A-proficient cell lines”.

**Q.** What about the “apoptosis (caspase activation, Annexin V)” value [6] of the same compound?
**A.** The value was “increased apoptosis”.

**Q.** And the “sensitivity to BSO of uterine cancer cell lines” value [7]?
**A.** Its value is “sensitized ARID1A-deficient cell lines more efficiently than ARID1A-proficient cell lines”.
